Test results published in ChEMBL document CHEMBL1649364, “Synthesis and antifungal activity of some substituted phenothiazines and related compounds” (2011).
Converted amounts (≈) assume the structure as drawn. The source made the active and inactive calls. The rule behind the calls is not given here.

Assays:
Aspergillus terreus = test: Antifungal activity against Aspergillus terreus by microdilution test; type: functional
[1] = Antifungal activity against Cladophialophora carrionii by microdilution test; type: functional
[2] = tested on: Meyerozyma guilliermondii; test: Antifungal activity against Candida guilliermondii by microdilution test; type: functional
Nakaseomyces glabratus = test: Antifungal activity against Candida glabrata by microdilution test; type: functional
[3] = Antifungal activity against Exophiala xenobiotica by microdilution test; type: functional
Aspergillus nidulans = test: Antifungal activity against Aspergillus nidulans by microdilution test; type: functional, organism-based
Exophiala spinifera = test: Antifungal activity against Exophiala spinifera by microdilution test; type: functional
Cryptococcus neoformans = test: Antifungal activity against Cryptococcus neoformans by microdilution test; type: functional
Candida albicans = test: Antifungal activity against Candida albicans by microdilution test; type: functional
Aspergillus niger = test: Antifungal activity against Aspergillus niger by microdilution test; type: functional
Pichia kudriavzevii = test: Antifungal activity against Candida krusei by microdilution test; type: functional
Aspergillus flavus = test: Antifungal activity against Aspergillus flavus by microdilution test; type: functional
Candida parapsilosis = test: Antifungal activity against Candida parapsilosis by microdilution test; type: functional; details: for MIC: Lodderomyces parapsilosis
[4] = Antifungal activity against Aspergillus fumigates by microdilution test; type: functional
[5] = Antifungal activity against Exophiala oligosperma by microdilution test; type: functional

SMILES	MIC (Aspergillus terreus)	MIC [2]	MIC (Nakaseomyces glabratus)	MIC [3]	MIC (Exophiala spinifera)	MIC (Candida albicans)	MIC (Aspergillus niger)	MIC (Pichia kudriavzevii)	MIC (Aspergillus flavus)	MIC (Candida parapsilosis)	MIC [4]	MIC [1]	MIC (Cryptococcus neoformans)	MIC [5]	also measured
O=C(CCl)Nc1ccccc1Sc1ccccc1															Activity (Aspergillus terreus): inactive; Activity [1]: inactive; Activity [2]: inactive; Activity (Nakaseomyces glabratus): inactive; Activity [3]: inactive; Activity (Aspergillus nidulans): inactive; Activity (Exophiala spinifera): inactive; Activity (Cryptococcus neoformans): inactive; Activity (Candida albicans): inactive; Activity (Aspergillus niger): inactive; Activity (Pichia kudriavzevii): inactive; Activity (Aspergillus flavus): inactive; Activity (Candida parapsilosis): inactive; Activity [4]: inactive; Activity [5]: inactive
C[C@@H]1[C@H](O)[C@@H](C)/C=C/C=C/C=C/C=C/C=C/C=C/C=C/[C@H](O[C@@H]2O[C@H](C)[C@@H](O)[C@H](N)[C@@H]2O)C[C@@H]2O[C@](O)(C[C@@H](O)C[C@@H](O)[C@H](O)CC[C@@H](O)C[C@@H](O)CC(=O)O[C@H]1C)C[C@H](O)[C@H]2C(=O)O [AMPHOTERICIN B]	2 µg/mL (≈ 2.16 µM)	1 µg/mL (≈ 1.08 µM)	0.25 µg/mL (≈ 0.271 µM)	1 µg/mL (≈ 1.08 µM)	1 µg/mL (≈ 1.08 µM)	0.5 µg/mL (≈ 0.541 µM)	0.5 µg/mL (≈ 0.541 µM)	0.25 µg/mL (≈ 0.271 µM)	0.25 µg/mL (≈ 0.271 µM)	0.5 µg/mL (≈ 0.541 µM)	0.5 µg/mL (≈ 0.541 µM)				
CN(C/C=C/C#CC(C)(C)C)Cc1cccc2ccccc12 [TERBINAFINE]	0.06 µg/mL (≈ 0.206 µM)	0.5 µg/mL (≈ 1.72 µM)	0.06 µg/mL (≈ 0.206 µM)	0.06 µg/mL (≈ 0.206 µM)	0.06 µg/mL (≈ 0.206 µM)	0.5 µg/mL (≈ 1.72 µM)	0.125 µg/mL (≈ 0.429 µM)	0.06 µg/mL (≈ 0.206 µM)	0.25 µg/mL (≈ 0.858 µM)	0.06 µg/mL (≈ 0.206 µM)	0.25 µg/mL (≈ 0.858 µM)	0.25 µg/mL (≈ 0.858 µM)	0.25 µg/mL (≈ 0.858 µM)	0.06 µg/mL (≈ 0.206 µM)	
CCC(C)n1ncn(-c2ccc(N3CCN(c4ccc(OCC5COC(Cn6cncn6)(c6ccc(Cl)cc6Cl)O5)cc4)CC3)cc2)c1=O (configuration not stated) [ITRACONAZOLE]	0.125 µg/mL (≈ 0.177 µM)	0.5 µg/mL (≈ 0.709 µM)	0.25 µg/mL (≈ 0.354 µM)	0.06 µg/mL (≈ 0.085 µM)	0.06 µg/mL (≈ 0.085 µM)	0.125 µg/mL (≈ 0.177 µM)	0.125 µg/mL (≈ 0.177 µM)	0.06 µg/mL (≈ 0.085 µM)	0.125 µg/mL (≈ 0.177 µM)	0.125 µg/mL (≈ 0.177 µM)	0.25 µg/mL (≈ 0.354 µM)	0.06 µg/mL (≈ 0.085 µM)	0.25 µg/mL (≈ 0.354 µM)	0.125 µg/mL (≈ 0.177 µM)	
CN(C)S(=O)(=O)c1ccc2c(c1)N(CCCN1CCC(CCO)CC1)c1ccccc1S2 [PIPOTIAZINE]	> 512 µg/mL	256 µg/mL (≈ 538 µM)	256 µg/mL (≈ 538 µM)	512 µg/mL (≈ 1080 µM)	256 µg/mL (≈ 538 µM)	256 µg/mL (≈ 538 µM)	> 512 µg/mL	512 µg/mL (≈ 1080 µM)	> 512 µg/mL	256 µg/mL (≈ 538 µM)	> 512 µg/mL	256 µg/mL (≈ 538 µM)	256 µg/mL (≈ 538 µM)	512 µg/mL (≈ 1080 µM)	
O=C(CCl)N1c2ccccc2Sc2ccccc21	16 µg/mL (≈ 58 µM)	32 µg/mL (≈ 116 µM)	> 512 µg/mL	16 µg/mL (≈ 58 µM)	16 µg/mL (≈ 58 µM)	32 µg/mL (≈ 116 µM)	2 µg/mL (≈ 7.25 µM)	32 µg/mL (≈ 116 µM)	32 µg/mL (≈ 116 µM)	32 µg/mL (≈ 116 µM)	16 µg/mL (≈ 58 µM)	4 µg/mL (≈ 14.5 µM)	8 µg/mL (≈ 29 µM)	16 µg/mL (≈ 58 µM)	
OC(Cn1cncn1)(Cn1cncn1)c1ccc(F)cc1F [FLUCONAZOLE]	16 µg/mL (≈ 52.2 µM)	4 µg/mL (≈ 13.1 µM)	1 µg/mL (≈ 3.27 µM)	16 µg/mL (≈ 52.2 µM)	16 µg/mL (≈ 52.2 µM)	2 µg/mL (≈ 6.53 µM)	16 µg/mL (≈ 52.2 µM)	64 µg/mL (≈ 209 µM)	16 µg/mL (≈ 52.2 µM)	1 µg/mL (≈ 3.27 µM)	16 µg/mL (≈ 52.2 µM)		8 µg/mL (≈ 26.1 µM)		
CC(CN1c2ccccc2Sc2ccccc21)N(C)C (configuration not stated) [PROMETHAZINE]	256 µg/mL (≈ 900 µM)	512 µg/mL (≈ 1800 µM)	> 512 µg/mL	256 µg/mL (≈ 900 µM)	256 µg/mL (≈ 900 µM)	> 512 µg/mL	256 µg/mL (≈ 900 µM)	256 µg/mL (≈ 900 µM)	256 µg/mL (≈ 900 µM)	512 µg/mL (≈ 1800 µM)	256 µg/mL (≈ 900 µM)	512 µg/mL (≈ 1800 µM)	256 µg/mL (≈ 900 µM)	256 µg/mL (≈ 900 µM)	
Nc1nc(=O)[nH]cc1F [FLUCYTOSINE]	1 µg/mL (≈ 7.75 µM)	1 µg/mL (≈ 7.75 µM)	1 µg/mL (≈ 7.75 µM)	8 µg/mL (≈ 62 µM)	2 µg/mL (≈ 15.5 µM)	2 µg/mL (≈ 15.5 µM)	0.5 µg/mL (≈ 3.87 µM)	0.5 µg/mL (≈ 3.87 µM)	1 µg/mL (≈ 7.75 µM)	0.5 µg/mL (≈ 3.87 µM)	0.5 µg/mL (≈ 3.87 µM)	1 µg/mL (≈ 7.75 µM)	0.5 µg/mL (≈ 3.87 µM)	4 µg/mL (≈ 31 µM)	
